# Data as given in patent US9676727B2, “Myxovirus therapeutics, compounds, and uses related thereto” (priority 2011, dated 2017).
# Legend:
# [1] = Pharmacokinetic study in rat, plasma concentration after dosing; type: in vivo, Sprague-Dawley rat; conditions: for AUC (0-t) / AUC (0-∞) / Cmax / Tmax / T½: suspension in PEG200/0.5% methylcellulose (10/90)
# Protocol: Preliminary pharmacokinetic (PK) studies in the Sprague-Dawley rat compared AS-136a with compounds 2k and 2o following p.o. dosing by oral gavage at 10 mg/kg and 50 mg/kg in a PEG200/0.5% methylcellulose (10/90) vehicle (n=4/group).
# The data from the preliminary pharmacokinetic studies using the 6-hour time point are reported for comparison purposes. […] On the basis of its excellent in vitro potency, good solubility and pharmacokinetic profile, compound 2o was chosen for further bioavailability evaluation.
# [2] = Aqueous solubility by nephelometry; type: physicochemical; conditions: buffer pH=7.4; for Aqueous solubility (μg/ml) Test: Nephelometer
# MV-Alaska [3] = assay: Virus yield (virus titer) reduction assay; type: cell-based, Measles virus (MeV); conditions: Measles morbillivirus
# Vero cells = assay: MTT cytotoxicity; type: cell-based; conditions: averages of at least three experiments; highest concentration assessed 75 μM
# MV-Alaska [4] = assay: Viral CPE-reduction assay (MeV-Alaska in Vero-SLAM cells, crystal violet); type: cell-based, Measles virus (MeV)
# Protocol: Methods for evaluating viral activity are provided for in Yoon et al., J Biomol Screen., 2008, 13(7): 591-608 and Krumm et al., PLoS ONE, 2011, 6(5), e20069, both hereby incorporated by reference in their entirety. In certain instances, Vero-SLAM cells were infected with MeV-Alaska in four replicates per compound concentration in a 96-well plate format at an MOI of 0.4 pfu/cell in the presence of the inhibitor. At 96 hours post-infection, cell monolayers were subjected to crystal violet staining (0.1% crystal violet in 20% ethanol), and the absorbance of dried plates at 560 nm determined. Virus-induced cytopathicity was then calculated according to the formula [% rel. CPE=100-(experimental-minimum)/(maximum-minimum)*100], with minimum referring to infected, vehicle-treated wells and maximum to mock-infected wells.
# [5] = averages of two to four experiments ± SEM, highest concentration assessed 1 μM, read-out: EC50 (μM) (MV-Alaska) virus titer reduction
# [6] = Measles morbillivirus, Table 1, piperidine series, read-out: EC50 (μM) (MV-Alaska) (CPE inhib.)
# [7] = Measles morbillivirus, Table 3, averages of four experiments, concentration range 2.3-75 μM, read-out: EC50 (μM) (MV-Alaska) CPE inhibition
# [8] = Measles morbillivirus, read-out: EC50 (μM) (MV-Alaska) (CPE inhib.)
# [9] = Table 1, piperidine series, read-out: EC50 (μM) (MV-Alaska) (CPE inhib.)
# [10] = Measles morbillivirus, Table 2, phenyl and acyclic series, read-out: EC50 (μM) (MV-Alaska) (CPE inhibition)
smiles,measurement,setting,value
"Cn1nc(C(F)(F)F)cc1C(=O)Nc1ccc(S(=O)(=O)N2CCCCC2)cc1 [AS-136a, 1-methyl-N-(4-(piperidin-1-ylsulfonyl)phenyl)-3-(trifluoromethyl)-pyrazole-5-carboxamide, reference compound]",AUC (0-t),[1]; oral 10 mg/kg,132 ng·h/mL
same,AUC (0-∞),[1]; oral 10 mg/kg,513 ng·h/mL
same,Cmax,[1]; oral 10 mg/kg,26.9 ng/mL
same,Tmax,[1]; oral 10 mg/kg,2.5 h
same,T½,[1]; oral 10 mg/kg,12.7 h
same,AUC (0-t),[1]; oral 50 mg/kg,308 ng·h/mL
same,AUC (0-∞),[1]; oral 50 mg/kg,483 ng·h/mL
same,Cmax,[1]; oral 50 mg/kg,72.2 ng/mL
same,Tmax,[1]; oral 50 mg/kg,2.7 h
same,T½,[1]; oral 50 mg/kg,3.7 h
same,aqueous solubility,[2]; nephelometry,15.0 µg/mL
same,EC50,MV-Alaska [3]; [5],0.014 µM
same,CC50,Vero cells,> 75 µM
"COCOCC1CCCCN1S(=O)(=O)c1ccc(NC(=O)c2cc(C(F)(F)F)nn2C)cc1 (stereo not drawn) [Compound 1a, N-(4-((2-((methoxymethoxy)methyl)piperidin-1-yl)sulfonyl)phenyl)-1-methyl-3-(trifluoromethyl)-pyrazole-5-carboxamide]",fold more potent than the corresponding 3-piperidine,"MV-Alaska [4]; MOM ether analogs, CPE assay",2 fold
same,EC50,MV-Alaska [4]; [6],1.5 µM
"COCOCC1CCCN(S(=O)(=O)c2ccc(NC(=O)c3cc(C(F)(F)F)nn3C)cc2)C1 (stereo not drawn) [Compound 1b, N-(4-((3-((methoxymethoxy)methyl)piperidin-1-yl)sulfonyl)phenyl)-1-methyl-3-(trifluoromethyl)-pyrazole-5-carboxamide]",EC50,MV-Alaska [4]; [6],3.8 µM
"COCOCC1CCN(S(=O)(=O)c2ccc(NC(=O)c3cc(C(F)(F)F)nn3C)cc2)CC1 [Compound 1c, N-(4-((4-((methoxymethoxy)methyl)piperidin-1-yl)sulfonyl)phenyl)-1-methyl-3-(trifluoromethyl)-pyrazole-5-carboxamide]","fold reduction of activity, 4-substituted derivative","MV-Alaska [4]; MOM ether analogs, CPE assay, versus 2-piperidine 1a",~10 fold
same,EC50,MV-Alaska [4]; [6],16 µM
Cn1nc(C(F)(F)F)cc1C(=O)Nc1ccc(S(=O)(=O)N2CCCCC2CO)cc1 (stereo not drawn) [Compound 2a],Aqueous solubility (μg/ml) Test,[2],61 µg/mL
same,EC50,MV-Alaska [3]; [5],0.85 ± 0.05 µM
same,CC50,Vero cells,> 75 µM
same,EC50,MV-Alaska [4]; [6],2.8 µM
same,EC50,MV-Alaska [4]; [7],2.3 µM
"Cn1nc(C(F)(F)F)cc1C(=O)Nc1ccc(S(=O)(=O)N2CCCCC2CN2CCOCC2)cc1 (stereo not drawn) [Compound 2b, 1-methyl-N-(4-((2-(morpholinomethyl)piperidin-1-yl)sulfonyl)phenyl)-3-(trifluoromethyl)-pyrazole-5-carboxamide]",EC50,MV-Alaska [4]; [6],9.3 µM
Cn1nc(C(F)(F)F)cc1C(=O)Nc1ccc(S(=O)(=O)N2CCCCC2CN=[N+]=[N-])cc1 (stereo not drawn) [Compound 2c],EC50,MV-Alaska [4]; [6],1.5 µM
"Cn1nc(C(F)(F)F)cc1C(=O)Nc1ccc(S(=O)(=O)N2CCCCC2CN)cc1 (stereo not drawn) [Compound 2d, N-(4-((2-(aminomethyl)piperidin-1-yl)sulfonyl)phenyl)-1-methyl-3-(trifluoromethyl)-pyrazole-5-carboxamide]",EC50,MV-Alaska [4]; [8],55 µM
"CC(=O)NCC1CCCCN1S(=O)(=O)c1ccc(NC(=O)c2cc(C(F)(F)F)nn2C)cc1 (stereo not drawn) [Compound 2e, N-(4-((2-(acetamidomethyl)piperidin-1-yl)sulfonyl)phenyl)-1-methyl-3-(trifluoromethyl)-pyrazole-5-carboxamide]",EC50,MV-Alaska [4]; [6],14 µM
"CCOC(=O)/C=C/C1CCCCN1S(=O)(=O)c1ccc(NC(=O)c2cc(C(F)(F)F)nn2C)cc1 (stereo not drawn) [Compound 2g, ethyl 3-(1-((4-(1-methyl-3-(trifluoromethyl)-pyrazole-5-carboxamido)phenyl)sulfonyl)piperidin-2-yl)acrylate]",fold more active than the corresponding alcohols (2h and 2j),MV-Alaska [4]; CPE assay,2 fold
same,EC50,MV-Alaska [4]; [8],3.7 µM
"Cn1nc(C(F)(F)F)cc1C(=O)Nc1ccc(S(=O)(=O)N2CCCCC2/C=C/CO)cc1 (stereo not drawn) [Compound 2h, N-(4-((2-(3-hydroxypropyl-1-ene)piperidin-1-yl)sulfonyl)phenyl)-1-methyl-3-(trifluoromethyl)-pyrazole-5-carboxamide]",EC50,MV-Alaska [4]; [6],6.8 µM
"CCOC(=O)CCC1CCCCN1S(=O)(=O)c1ccc(NC(=O)c2cc(C(F)(F)F)nn2C)cc1 (stereo not drawn) [Compound 2i, ethyl 3-(1-((4-(1-methyl-3-(trifluoromethyl)-pyrazole-5-carboxamido)phenyl)sulfonyl)piperidin-2-yl)propanoate]",fold more active than the corresponding alcohols (2h and 2j),MV-Alaska [4]; CPE assay,2 fold
same,EC50,MV-Alaska [4]; [6],2.7 µM
"Cn1nc(C(F)(F)F)cc1C(=O)Nc1ccc(S(=O)(=O)N2CCCCC2CCCO)cc1 (stereo not drawn) [Compound 2j, N-(4-((2-(3-hydroxypropyl)piperidin-1-yl)sulfonyl)phenyl)-1-methyl-3-(trifluoromethyl)-pyrazole-5-carboxamide]",EC50,MV-Alaska [4]; [6],6.7 µM
"Cn1nc(C(F)(F)F)cc1C(=O)Nc1ccc(S(=O)(=O)N2CCCCC2CCO)cc1 (stereo not drawn) [Compound 2k, N-(4-((2-(2-hydroxyethyl)piperidin-1-yl)sulfonyl)phenyl)-1-methyl-3-(trifluoromethyl)-pyrazole-5-carboxamide]",AUC (0-t),[1]; oral 10 mg/kg,56.3 ng·h/mL
same,AUC (0-∞),[1]; oral 10 mg/kg,56.8 ng·h/mL
same,Cmax,[1]; oral 10 mg/kg,19.8 ng/mL
same,Tmax,[1]; oral 10 mg/kg,1 h
same,T½,[1]; oral 10 mg/kg,0.8 h
same,AUC (0-t),[1]; oral 50 mg/kg,754 ng·h/mL
same,AUC (0-∞),[1]; oral 50 mg/kg,973 ng·h/mL
same,Cmax,[1]; oral 50 mg/kg,184 ng/mL
same,Tmax,[1]; oral 50 mg/kg,0.5 h
same,T½,[1]; oral 50 mg/kg,2.7 h
same,dose proportionality,"[1]; p.o., range of 10 mg/kg to 50 mg/kg",non-proportionality
same,Aqueous solubility (μg/ml) Test,[2],62 µg/mL
same,EC50,"MV-Alaska [3]; MV-Alaska, read-out: EC50 in the virus titer reduction assay",0.06 µM
same,EC50,MV-Alaska [3]; [5],0.06 µM
same,CC50,Vero cells,> 75 µM
same,EC50,MV-Alaska [4]; [7],2.7 µM
same,EC50,"MV-Alaska [4]; Measles morbillivirus, MV-Alaska, read-out: EC50, CPE assay",2.7 µM
"Cn1nc(C(F)(F)F)cc1C(=O)Nc1ccc(S(=O)(=O)N2CCCCC2CCO)cc1 (stereo not drawn) [Compound 2l, N-(4-((2-(2-hydroxyethyl)piperidin-1-yl)sulfonyl)phenyl)-1-methyl-3-(trifluoromethyl)-pyrazole-5-carboxamide]",fold loss of activity compared to 2m,"MV-Alaska [4]; CPE assay, R versus S chirality",3 fold
same,EC50,MV-Alaska [4]; [9],8.3 µM
"Cn1nc(C(F)(F)F)cc1C(=O)Nc1ccc(S(=O)(=O)N2CCCCC2CCO)cc1 (stereo not drawn) [Compound 2m, N-(4-((2-(2-hydroxyethyl)piperidin-1-yl)sulfonyl)phenyl)-1-methyl-3-(trifluoromethyl)-pyrazole-5-carboxamide]",EC50,MV-Alaska [4]; [9],3.1 µM
"Cn1nc(C(F)(F)F)cc1C(=O)Nc1ccc(S(=O)(=O)N2CCCCC2CCN2CCOCC2)cc1 (stereo not drawn) [Compound 2n, 1-methyl-N-(4-((2-(2-morpholinoethyl)piperidin-1-yl)sulfonyl)phenyl)-3-(trifluoromethyl)-pyrazole-5-carboxamide]",Aqueous solubility (μg/ml) Test,[2],55 µg/mL
same,CC50,Vero cells,> 75 µM
same,EC50,MV-Alaska [4]; [6],4.6 µM
"CCOC(=O)COCC1CCCCN1S(=O)(=O)c1ccc(NC(=O)c2cc(C(F)(F)F)nn2C)cc1 (stereo not drawn) [Compound 2p, ethyl 2-((1-((4-(1-methyl-3-(trifluoromethyl)-pyrazole-5-carboxamido)phenyl)sulfonyl)piperidin-2-yl)methoxy)acetate]",EC50,MV-Alaska [4]; [6],25 µM
"Cn1nc(C(F)(F)F)cc1C(=O)Nc1ccc(S(=O)(=O)N2CCCCC2COCCO)cc1 (stereo not drawn) [Compound 2q, N-(4-((2-((2-hydroxyethoxy)methyl)piperidin-1-yl)sulfonyl)phenyl)-1-methyl-3-(trifluoromethyl)-pyrazole-5-carboxamide]",EC50,MV-Alaska [4]; [6],8.3 µM
"Cn1nc(C(F)(F)F)cc1C(=O)Nc1ccc(S(=O)(=O)c2ccccc2)cc1 [Compound 3a, 1-methyl-N-(4-(phenylsulfonyl)phenyl)-3-(trifluoromethyl)-pyrazole-5-carboxamide]",Aqueous solubility (μg/ml) Test,[2],22 µg/mL
same,EC50,MV-Alaska [3]; [5],0.02 µM
same,CC50,Vero cells,> 75 µM
same,EC50,MV-Alaska [4]; [10],2.8 µM
"COc1ccccc1S(=O)(=O)c1ccc(NC(=O)c2cc(C(F)(F)F)nn2C)cc1 [Compound 3b, N-(4-((2-methoxyphenyl)sulfonyl)phenyl)-1-methyl-3-(trifluoromethyl)-pyrazole-5-carboxamide]",CC50,Vero cells,> 75 µM
same,EC50,MV-Alaska [4]; [10],3.1 µM
"CC(=O)Oc1ccccc1S(=O)(=O)c1ccc(NC(=O)c2cc(C(F)(F)F)nn2C)cc1 [Compound 3d, 2-((4-(1-methyl-3-(trifluoromethyl)-pyrazole-5-carboxamido)phenyl)sulfonyl)phenyl acetate]",EC50,MV-Alaska [4]; [10],4.5 µM
"Cn1nc(C(F)(F)F)cc1C(=O)Nc1ccc(S(=O)(=O)c2ccccc2CO)cc1 [Compound 3f, N-(4-((2-(hydroxymethyl)phenyl)sulfonyl)phenyl)-1-methyl-3-(trifluoromethyl)-pyrazole-5-carboxamide]",Aqueous solubility (μg/ml) Test,[2],46 µg/mL
same,CC50,Vero cells,> 75 µM
same,EC50,MV-Alaska [4]; [10],3.1 µM
same,EC50,MV-Alaska [4]; [7],3.1 µM
